Test results from patent publication US20240238296A1, “METHODS OF REGULATING BCL11A EXPRESSION AND TREATMENT OF BCL11A-MEDIATED DISORDERS” (Fulcrum Therapeutics, Inc., priority 2021, published 2024).

What was measured:
[1] = tested on: HBG1; experiment: RNA-Seq of HBG1 expression in erythroid-differentiated primary CD34+ cells; format: cell-based, human
Experimental: (§1) Changes in BCL11A expression and HBG1 and HBG2 expression in multiple healthy CD34+ donor cells were measured by RNA sequencing (RNA-Seq). Human Mobilized Peripheral Blood Primary CD34+ cells from 2 healthy donors and 1 sickle cell trait donor were expanded from thaw by seeding 100,000 viable cells/mL in a culture flask containing CD34+ Phase 1 Media comprised of IMDM, 100 ng/ml hSCF, 5 ng/ml IL-3, 3 IU/mL EPO, 250 μg/mL transferrin, 2.5% normal human serum, 1% pen/strep, 10 ng/ml heparin, 10 μg/mL insulin. The cells were supplemented by adding an additional 1X culture volume of CD34+ Phase 1 Media on Day 3 after thaw. At Day 7 post-thaw, cells were seeded at 0.111×10^6 cells/ml in 1.5 mLs of Phase 1 media in 12-well plates and compound was applied. On Day 10 post-thaw, cells were differentiated towards the erythroid lineage by complete medium exchange into CD34+ Phase 2 Media comprised of IMDM, 100 ng/ml hSCF, 3 IU/mL EPO, 250 μg/mL transferrin, 2.5% normal human serum, 1% pen/strep, 10 ng/ml heparin, 10 μg/mL insulin and compound treatment was reapplied. […]
(§2) RNA was extracted from Day 14 post-thaw primary CD34+ cells that were differentiated and treated for 7 days with DMSO, 100 nM of Compound 1, or 100 nM of Compound 2 using Ambion mirVana RNA extraction kits. […] Sequenced raw reads of fastq files from all samples were mapped to hg38 genome assemblies using ArrayStudio aligner. Raw read counts and FPKM were calculated for all genes and DESeq2 was applied to calculate differentially expressed genes using general linear model. […]
as §2, with “DMSO, 11 nM, 33 nM,” for “DMSO,”, “100 nM, or 300” for “100”, “1” for “1, or 100 nM of Compound 2”

[2] = tested on: TFRC; experiment: RNA-Seq of housekeeping gene TFRC expression in primary CD34+ cells; format: cell-based, human; conditions: Example 2; 100 nM, 7 days
Experimental: as §1, with “applied.” for “applied. On Day 10 post-thaw, cells were differentiated towards the erythroid lineage by complete medium exchange into CD34+ Phase 2 Media comprised of IMDM, 100 ng/ml hSCF, 3 IU/mL EPO, 250 μg/mL transferrin, 2.5% normal human serum, 1% pen/strep, 10 ng/ml heparin, 10 μg/mL insulin and compound treatment was reapplied.”
as §2

[3] = tested on: HbF; experiment: Percentage HbF by cation-exchange HPLC in erythroid-differentiated primary CD34+ cells; format: cell-based, human; conditions: Example 2; 100 nM, 7 days
Experimental: as §1, with “applied.” for “applied. On Day 10 post-thaw, cells were differentiated towards the erythroid lineage by complete medium exchange into CD34+ Phase 2 Media comprised of IMDM, 100 ng/ml hSCF, 3 IU/mL EPO, 250 μg/mL transferrin, 2.5% normal human serum, 1% pen/strep, 10 ng/ml heparin, 10 μg/mL insulin and compound treatment was reapplied.”
Hemoglobin protein tetramers were analyzed using HPLC analysis following a protocol derived from Gravett et al. Science 2018. […] Hemolysates were cleared by centrifugation and analyzed for identity and levels of hemoglobin variants (HbF and HbA) by cation-exchange HPLC with a weak cation-exchange column (Poly CAT A: 35 mm×4.6 mm, Poly LC, Inc., Columbia, MD). […] Species were monitored with UV absorbance at 410 nm. […] The abundance of HbF, HbS, and HbA was quantified by calculating the area under the curve for each species in the samples. % HbF was calculated as HbF/(HbF+HbS+HbA)*100. […]

[4] = tested on: HBG2; experiment: RNA-Seq of HBG2 expression in erythroid-differentiated primary CD34+ cells; format: cell-based, human
Experimental: as §1, §2
as §2, with “DMSO, 11 nM, 33 nM,” for “DMSO,”, “100 nM, or 300” for “100”, “1” for “1, or 100 nM of Compound 2”

[5] = tested on: BCL11A; experiment: RNA-Seq of BCL11A mRNA expression in erythroid-differentiated primary CD34+ cells; format: cell-based, human
Experimental: Human Mobilized Peripheral Blood Primary CD34+ cells from healthy donors were expanded from thaw by seeding 100,000 viable cells/mL in a culture flask containing CD34+ Phase 1 Media comprised of IMDM, 100 ng/ml hSCF, 5 ng/ml IL-3, 3 IU/mL EPO, 250 μg/mL transferrin, 2.5% normal human serum, 1% pen/strep, 10 ng/ml heparin, 10 μg/mL insulin. The cells were supplemented by adding an additional 1X culture volume of CD34+ Phase 1 Media on Day 3 after thaw. At Day 7 post-thaw, cells were seeded at 0.111×10^6 cells/ml in 1.5 mLs of Phase 1 media in 12-well plates and compound was applied. On Day 10 post-thaw, cells were differentiated towards the erythroid lineage by complete medium exchange into CD34+ Phase 2 Media comprised of IMDM, 100 ng/ml hSCF, 3 IU/mL EPO, 250 μg/mL transferrin, 2.5% normal human serum, 1% pen/strep, 10 ng/mL heparin, 10 μg/mL insulin and compound treatment was reapplied. On Day 12 post-thaw the plates were centrifuged, and 1 mL of Phase 2 media exchanged with fresh Phase 2 media and compound. The cells were harvested on Day 14 post-thaw for downstream analyses.
as §2, with “DMSO, 11 nM, 33 nM,” for “DMSO,”, “100 nM, or 300” for “100”, “1” for “1, or 100 nM of Compound 2”
Changes in BCL11A expression and HBG1 and HBG2 expression in multiple healthy CD34+ donor cells were measured by RNA sequencing (RNA-Seq). […]
as §2, with “aligner.” for “aligner. Raw read counts and FPKM were calculated for all genes and DESeq2 was applied to calculate differentially expressed genes using general linear model.”

[6] = tested on: HbF; experiment: % HbF of total hemoglobin by HPLC from whole blood in Townes SCD mouse model; format: in vivo; conditions: Townes SCD mice; whole blood after 21 days of treatment; FIG. 8C
From the text: (§3) The Townes SCD mouse model was used to study the in vivo pharmacologic activity of Compound 1 in a model with the relevant human globin genes (HBG1 and HBBE6V) integrated into the mouse beta globin locus. Hydroxyurea was used as a benchmark for this 21-day study. […] People living with sickle cell present with impaired erythropoiesis leading to elevated reticulocytes, decreased red blood cell count, and total hemoglobin, and additionally display markers of inflammation such as elevated neutrophils and white blood cells. Similarly, the Townes mouse model recapitulates these hematological aspects of SCD.

[7] = tested on: H3K27me3; experiment: Target engagement: H3K27me3 flow cytometry in Ter119+ bone marrow cells of Townes SCD mice; format: in vivo, mouse; conditions: after 28 days of treatment, FIG. 8A
From the text: as §3, with “Hydroxyurea was used as a benchmark for this 21-day study.” left out

[8] = Example 2, 100 nM, 7 days, all donors studied (D069, D144, D326), FIG. 2
[9] = Example 5, 4-point concentration response curves, FIG. 5B
[10] = Example 5, 4-point concentration response curves, FIG. 5C
[11] = Example 5, 4-point concentration response curves, FIG. 5A

Row | SMILES | HBG1 expression [1, 8] | HBG1 expression [1, 9] | expression of the housekeeping gene TFRC [2] | increase in percentage HbF by HPLC [3] | HBG2 expression [4, 8] | HBG2 expression [4, 10] | BCL11A expression [5, 8] | BCL11A expression [5, 11] | % HbF of total hemoglobin by HPLC [6] | levels of H3K27me3 in Ter119+ bone marrow cells [7]
1 | Cn1nccc1-c1cc2c(n3cnnc13)NCc1c(F)ccc3c1[C@H](CO3)CO2 [Compound 2] | increase | induction | did not result in substantial changes in expression | approximately 2 fold | increase | induction | decreased | reduction |  | 
2 | COc1cc(C)[nH]c(=O)c1CN1CCc2c(Cl)cc([C@@H](OC)C3COC3)c(Cl)c2C1=O [Compound 3] |  | induction |  |  |  | induction |  | reduction |  | 
3 | NC(=O)NO [hydroxyurea] |  |  |  |  |  |  |  |  | no change | not
